Reference: article PMC12417622 (Biopharmaceutics & Drug Disposition, 2025)
Read-outs that look alike come from different tables or passages of the source.

How the values were obtained:
[1] = target: T1, hOAT3 (Homo sapiens, UniProt Q8TCC7); assay: Uptake of 6-CF in HEK-pBK and HEK-hOAT3 cells and its inhibition by probenecid; type: cell-based; parameters: expressed in transfected cells; host or cells: HEK293 (HEK-hOAT3), gift of Dr. Atsushi Yonezawa, Kyoto University Hospital; mock control HEK-pBK (pBKCMV vector); details: 5 μM 6-CF, 2 min, 37°C
T1 sequence (Q8TCC7 1-542): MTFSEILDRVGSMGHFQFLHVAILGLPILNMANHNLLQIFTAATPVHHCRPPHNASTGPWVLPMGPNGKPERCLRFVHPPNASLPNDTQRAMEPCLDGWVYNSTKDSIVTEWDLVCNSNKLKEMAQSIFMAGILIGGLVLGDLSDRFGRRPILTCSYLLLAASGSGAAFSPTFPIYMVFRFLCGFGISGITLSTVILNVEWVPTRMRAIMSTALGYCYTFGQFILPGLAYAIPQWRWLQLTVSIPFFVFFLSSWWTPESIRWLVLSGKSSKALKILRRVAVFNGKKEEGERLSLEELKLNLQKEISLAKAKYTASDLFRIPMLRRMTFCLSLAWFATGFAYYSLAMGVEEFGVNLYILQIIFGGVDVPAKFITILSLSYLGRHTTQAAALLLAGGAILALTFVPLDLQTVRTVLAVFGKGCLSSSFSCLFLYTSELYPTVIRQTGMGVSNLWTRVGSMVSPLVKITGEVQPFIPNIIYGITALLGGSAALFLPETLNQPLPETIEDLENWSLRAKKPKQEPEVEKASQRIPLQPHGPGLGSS
Procedure: The cells were incubated for 2 min at 37°C with 5 µM 6‐CF (pH 7.4) in the absence or presence of probenecid (100 µM).

[2] = target: T1, hOAT3; parameters: expressed in transfected cells; host or cells: HEK293 (HEK-hOAT3), gift of Dr. Atsushi Yonezawa, Kyoto University Hospital; mock control HEK-pBK (pBKCMV vector); details: cited from earlier work; for Ki: read-out: Ki against hOAT3
[3] = Cmax of febuxostat after oral administration in human; type: in vivo; details: 40–120 mg febuxostat orally, estimated from Cmax and protein binding
[4] = parameters: method as in review report of febuxostat (Feburic Tablet); details: rats, 5 min after febuxostat 1 mg/kg i.v.; ref review report of febuxostat (Feburic Tablet); cited from earlier work
[5] = parameters: method as in Yu et al. [2023]; details: rats; ref Yu et al. [2023]; cited from earlier work
[6] = parameters: method as in Zhang et al. [2014]; details: human, 40–120 mg febuxostat orally; ref Zhang et al. [2014]; cited from earlier work
[7] = target: T1, hOAT3; assay: Inhibition of hOAT3-mediated methotrexate transport by febuxostat in HEK-hOAT3 cells (inhibition plot, Dixon plot); type: cell-based; parameters: expressed in transfected cells; host or cells: HEK293 (HEK-hOAT3), gift of Dr. Atsushi Yonezawa, Kyoto University Hospital; mock control HEK-pBK (pBKCMV vector)
Procedure: (§1) The entire LC gradient was 16 min.

[8] = Pharmacokinetics of methotrexate after intravenous administration with and without febuxostat in rats; type: in vivo, rat; details: for Vd / half-life / k el / AUC(0-t) / clearance: male, Wistar, rat, plasma, iv, 2 mg/kg, methotrexate 2 mg/kg i.v., mean ± S.D.; for Vd / half-life / k el: n = 4; for AUC(0-t): n = 4, read-out: AUC0–90 min (converted); for clearance: n = 4, read-out: CLtot
Source text: Nine‐week‐old male Wistar rats (SLC Japan Co., Shizuoka, Japan) were used for the pharmacokinetics study. All animal procedures were approved by the Animal Experiments Committee of The University of Osaka (No. 03‐018‐000) and conducted in accordance with the Japanese Law for the Protection and Management of Animals, the Standards Relating to the Care and Management of Laboratory Animals and Relief of Pain, and other relevant regulations and guidelines for animal experimentation. The rats were anesthetized with an intraperitoneal injection of a mixture of medetomidine, midazolam, and butorphanol at doses of 0.38, 2.0, and 2.5 mg/kg, respectively. Polyethylene catheters were implanted into the femoral vein and femoral artery to administer the drug and facilitate frequent blood collection. […] The area under the plasma concentration–time curve from 0 to 90 min (AUC0–90 min) was calculated using the trapezoidal rule. Moreover, the systemic clearance (CLtot), elimination rate constant from the central compartment (Kel), distribution volume of the central compartment (Vd), and half‐life (T1/2) were calculated according to the procedures for 2‐compartmental analysis.
as §1

[9] = target: T1, hOAT3; details: 10 μM methotrexate, 2, 5, 10 and 15 min, 37°C, all time points
Procedure: These cells were cultured in complete medium consisting of Medium 199 (Life Technologies, Carlsbad, CA) supplemented with 10% fetal bovine serum containing G418 (0.5 mg/mL; FUJIFILM WAKO Pure Chemical) and were used between passage numbers 95 and 115. These cells were maintained at 37°C under 5% CO2 in a humidified atmosphere.
The cells (12 × 10^5 cells/dish) were seeded in 3.5 cm dishes with culture medium in the absence of G418. After 48 h of culture, cell monolayers were utilized for uptake study. […] The composition of the incubation medium was as follows: 145 mM NaCl, 3 mM KCl, 1 mM CaCl2, 0.5 mM MgCl2, 5 mM D‐glucose, and 5 mM HEPES (pH 7.4). […] To assess intracellular 6‐CF accumulation, the cells were solubilized in 1 N NaOH and fluorescence was measured using a fluorescence spectrophotometer (SH‐9000lab, CORONA, Ibaraki, Japan) at 495 nm excitation/517 nm emission. The protein content of the solubilized cells was measured using a BCA protein assay kit (Thermo Fisher Scientific, Waltham, MA).
The UPLC‐MS/MS system was applied with the ACQUITY HPLC H‐class/ACQUITY TQD system with electrospray ionization (Waters, Milford, MA). 10 μL of 100 ng/mL pemetrexed, utilized as an internal standard (IS), was added to the samples (100 μL). The samples (10 μL) were then subjected to UPLC‐MS/MS. […]

[10] = parameters: method as in Bleyer [1978]; details: within 30 h of administration; ref Bleyer [1978]; cited from earlier work
[11] = test system: rOAT3; parameters: method as in Nozaki et al. [2004]; details: rat kidney slices; ref Nozaki et al. [2004]; cited from earlier work
[12] = substrate: CN(Cc1cnc2nc(N)nc(N)c2n1)c1ccc(C(=O)N[C@@H](CCC(=O)O)C(=O)O)cc1; assay: cells, lysate or membranes named; details: other: 2 min, 37°C, pH 7.4, uptake in HEK-pBK subtracted from HEK-hOAT3, mean ± S.E.
[13] = HEK-hOAT3 cells, estron-3-sulfate as substrate, ref Tang et al. [2022]

## O=C(O)c1ccc(C(=O)O)c(-c2c3ccc(=O)cc-3oc3cc(O)ccc23)c1 [6‐CF, 6‐carboxyfluorescein]
[1]; pH 7.4
  Uptake in HEK-hOAT3 cells relative to HEK-pBK cells: approximately 17.4 fold

## Cc1nc(-c2ccc(OCC(C)C)c(C#N)c2)sc1C(=O)O[C@@H]1O[C@H](C(=O)O)[C@@H](O)[C@H](O)[C@H]1O [febuxostat acyl‐β‐D‐glucuronide]
[2]; [13]
  inhibitory type against hOAT3: competitive
  Ki: 6110 nM

## Cc1nc(-c2ccc(OCC(C)C)c(C#N)c2)sc1C(=O)O [febuxostat]
[3]
  unbound Cmax (clinical concentration): 0.12 to 0.30 µM
[4]
  plasma concentration of febuxostat: approximately 24.1 μM
[5]
  protein binding: 98.4%
[6]
  Cmax: 5.3 to 13.5 µM
[7]
  IC50: 650 ± 130 nM
  Ki: 630 ± 10 nM
[7]; Dixon plot, HEK-hOAT3 cells
  inhibitory type against hOAT3-mediated transport of methotrexate: noncompetitive
[7]; human unbound Cmax 0.12–0.30 μM, Ki against hOAT3 0.63 μM
  ratio of unbound Cmax to Ki value: 0.19–0.48
[2]; ref Tang et al. ([2022])
  Ki: 550 ± 150 nM

## CN(Cc1cnc2nc(N)nc(N)c2n1)c1ccc(C(=O)N[C@@H](CCC(=O)O)C(=O)O)cc1 [methotrexate]
[8]; febuxostat (+) 1 mg/kg i.v.
  Vd: 0.433 ± 0.088 L/kg
  half-life: 14 ± 4.6 min
  k el: 0.000833 s⁻¹
  AUC(0-t): 4350 ng·h/mL
  clearance: 8.02 ± 2.03 mL/min/kg
[8]; febuxostat (−)
  Vd: 0.378 ± 0.061 L/kg
  half-life: 6.4 ± 1.4 min
  k el: 0.00183 s⁻¹
  AUC(0-t): 2170 ng·h/mL
  clearance: 15.9 ± 3.56 mL/min/kg
[8]; methotrexate 2 mg/kg i.v. with febuxostat 1 mg/kg i.v. vs without, at 15, 30, 60 and 90 min
  Plasma concentration of methotrexate with concomitant febuxostat: significantly increased
[9]
  Uptake in HEK-hOAT3 cells compared with HEK-pBK cells: significantly higher
[10]
  excreted in urine as unchanged drug: approximately 95%
[11]
  share of renal basolateral uptake for which rOAT3 is responsible: approximately 50%

## CCCN(CCC)S(=O)(=O)c1ccc(C(=O)O)cc1 [probenecid]
[1]; 100 μM probenecid
  Effect on uptake of 6-CF in HEK-hOAT3 cells: potently inhibited

B1: hOAT3 (Homo sapiens) (protein)
chain: MTFSEILDRVGSMGHFQFLHVAILGLPILNMANHNLLQIFTAATPVHHCRPPHNASTGPWVLPMGPNGKPERCLRFVHPPNASLPNDTQRAMEPCLDGWVYNSTKDSIVTEWDLVCNSNKLKEMAQSIFMAGILIGGLVLGDLSDRFGRRPILTCSYLLLAASGSGAAFSPTFPIYMVFRFLCGFGISGITLSTVILNVEWVPTRMRAIMSTALGYCYTFGQFILPGLAYAIPQWRWLQLTVSIPFFVFFLSSWWTPESIRWLVLSGKSSKALKILRRVAVFNGKKEEGERLSLEELKLNLQKEISLAKAKYTASDLFRIPMLRRMTFCLSLAWFATGFAYYSLAMGVEEFGVNLYILQIIFGGVDVPAKFITILSLSYLGRHTTQAAALLLAGGAILALTFVPLDLQTVRTVLAVFGKGCLSSSFSCLFLYTSELYPTVIRQTGMGVSNLWTRVGSMVSPLVKITGEVQPFIPNIIYGITALLGGSAALFLPETLNQPLPETIEDLENWSLRAKKPKQEPEVEKASQRIPLQPHGPGLGSS
[12]
  Km: 46.4 ± 9.2 µM
  Vmax: 287 ± 26 pmol/mg protein/min
